Data published in US20070020196A1, “Inhalant formulation containing sulfoalkyl ether cyclodextrin and corticosteroid prepared from a unit dose suspension” (priority 2003, published 2007).
In brackets after ≈: the same amount, converted by molar mass.

Key:
physchem = conditions: thermodynamic from solid
[1] = Solubility of selected steroids enhanced by cyclodextrins (phase solubility); conditions: thermodynamic from solid
[2] = Molar ratio SAE-CD:corticosteroid at saturated solubility (phase solubility binding study); assay type: physicochemical
[3] = Stability of budesonide R- and S-isomers with and without SBE7-β-CD (Example 13); assay type: physicochemical
Experimental: The inventors have also discovered that SAE-CD is capable of stabilizing the isomers of budesonide to different extents. A study to determine if SBE7-β-CD stabilized budesonide solutions and if it preferentially stabilized one isomer was conducted according to Example 13. FIG. 11 is a semi-log plot of the % of initial concentration at each time point for the samples stored at 60 ° C. Loss of budesonide was first order at each temperature.
Solutions of budesonide with and without SBE7-β-CD were prepared at two different pHs (4 and 6) and stored at 2 different temperatures (60° C. and 80° C.). Citrate buffers (50 mM) at each pH value were prepared by mixing differing portions of 50 mM citric acid and 50 mM sodium citrate (tribasic, dihydrate) solutions. To achieve a concentration of budesonide in the buffers without SBE7-β-CD sufficient for accurate measurement, the budesonide was dissolved first in 100% ethyl alcohol. An aliquot of the ethanol/budesonide solution was then added drop-wise with stirring to each buffer solution. The theoretical budesonide concentration was 100 μg/mL with a final ethanolic content of 5% in each buffer. All solution preps and procedures involving budesonide were done in a darkened room under red light. After shaking solutions for 24 hours, both buffer solutions were filtered through Millipore Millex-GV 0.22 μm syringe filters to remove any solid that had precipitated (no significant amounts observed) from the solutions. The final budesonide concentration was about 50 μg/mL. Both the pH 4 and 6 solutions were split in two, and solid SBE7-β-CD was added to one of the portions to create solutions with and without 1% w/v SBE7-β-CD at each pH. Each solution was aliquoted into individual amber vials. They were then placed in ovens at 60° C. and 80° C. Sample vials were removed from the ovens and analyzed by HPLC at 0, 96, 164, and 288 hours. The HPLC assay conditions are summarized below.

[4] = aqueous with cosolvent or surfactant or cyclodextrin, [Steroid] solubility, (SBE)6.1 γ-CD (0.04 M)
[5] = aqueous with cosolvent or surfactant or cyclodextrin, [Steroid] solubility, Captisol (0.04 M)
[6] = water, [Steroid] Intrinsic Solubility (in H2O)
[7] = aqueous cyclodextrin solution, aqueous with cosolvent or surfactant or cyclodextrin, Solubility of steroid, (SBE)5.2 γ-CD 0.1 M
[8] = aqueous cyclodextrin solution, aqueous with cosolvent or surfactant or cyclodextrin, Solubility of steroid, (SBE)6.1 γ-CD 0.04 M
[9] = aqueous cyclodextrin solution, aqueous with cosolvent or surfactant or cyclodextrin, Solubility of steroid, (SBE)6.1 γ-CD 0.08 M
[10] = aqueous cyclodextrin solution, aqueous with cosolvent or surfactant or cyclodextrin, Solubility of steroid, (SBE)6.7 β-CD 0.0465 M
[11] = aqueous cyclodextrin solution, aqueous with cosolvent or surfactant or cyclodextrin, Solubility of steroid, (SBE)6.7 β-CD 0.0950 M
[12] = aqueous cyclodextrin solution, aqueous with cosolvent or surfactant or cyclodextrin, Solubility of steroid, (SBE)9.7 γ-CD […]
[13] = aqueous cyclodextrin solution, aqueous with cosolvent or surfactant or cyclodextrin, Solubility of steroid, (SPE)5.4 γ-CD 0.04 M
[14] = aqueous cyclodextrin solution, aqueous with cosolvent or surfactant or cyclodextrin, Solubility of steroid, (SPE)5.4 γ-CD 0.08 M
[15] = aqueous cyclodextrin solution, aqueous with cosolvent or surfactant or cyclodextrin, Solubility of steroid, (SPE)7 β-CD 0.04 M
[16] = aqueous cyclodextrin solution, aqueous with cosolvent or surfactant or cyclodextrin, Solubility of steroid, (SPE)7 β-CD 0.08 M
[17] = aqueous cyclodextrin solution, aqueous with cosolvent or surfactant or cyclodextrin, Solubility of steroid, γ-CD 0.1 M
[18] = water, Solubility of steroid, H2O, no CD

Work on `C[C@]12C=CC(=O)C=C1CC[C@@H]1[C@@H]2C(=O)C[C@@]2(C)[C@H]1CC[C@]2(O)C(=O)CO` [Prednisone] yielded a solubility (physchem; [4]) of 13100 µM (≈ 4710 µg/mL), a solubility (physchem; [5]) of 18300 µM (≈ 6570 µg/mL) and a solubility (physchem; [6]) of 505 µM (≈ 181 µg/mL).

For `C[C@@H]1C[C@H]2[C@@H]3C[C@H](F)C4=CC(=O)C=C[C@]4(C)[C@@]3(F)[C@@H](O)C[C@]2(C)[C@@]1(O)C(=O)SCF` [Fluticasone, fluticasone], the solubility ([1]; aqueous cyclodextrin solution, aqueous with cosolvent or surfactant or cyclodextrin, Solubility of steroid, (SBE)2.4 β-CD 0.04 M) was 128 µM, the solubility [1, 7] was 14400 µM and the solubility [1, 8] was 5760 µM. The solubility [1, 9] was 9490 µM, the solubility [1, 10] was 1260 µM and the solubility [1, 11] was 2160 µM. It also gave a solubility [1, 12] of 8950 µM, a solubility [1, 13] of 7600 µM and a solubility [1, 14] of 13900 µM. It also gave a solubility [1, 15] of 939 µM, a solubility [1, 16] of 1510 µM and a solubility [1, 17] of 822 µM. The solubility [1, 18] was 1.6 µM and the “Approximate Molar Ratio at Saturated Solubility of Corticosteroid (SAE-CD: corticosteroid)” value (from here on “Approximate Molar Ratio”) ([2]; SAE-β-CD) was about 32.

`C[C@@H]1C[C@H]2[C@@H]3CCC4=CC(=O)C=C[C@]4(C)[C@@]3(Cl)[C@@H](O)C[C@]2(C)[C@@]1(OC(=O)c1ccco1)C(=O)CCl` [Mometasone furoate, mometasone furoate] gave a solubility [1, 7] of 939 µM, a solubility [1, 8] of 415 µM and a solubility [1, 9] of 929 µM. The solubility [1, 10] was 164 µM, the solubility [1, 11] was 311 µM and the solubility ([1]; aqueous cyclodextrin solution, aqueous with cosolvent or surfactant or cyclodextrin, Solubility of steroid, (SBE)7 α-CD 0.04 M) was 301 µM. For the same compound, the solubility ([1]; aqueous cyclodextrin solution, aqueous with cosolvent or surfactant or cyclodextrin, Solubility of steroid, (SBE)7 α-CD 0.08 M) was 355 µM, the solubility [1, 12] was 940 µM and the solubility [1, 13] was 287 µM. The solubility [1, 14] was 513 µM, the solubility [1, 15] was 72.3 µM and the solubility [1, 16] was 108 µM. For the same compound, the solubility ([1]; aqueous cyclodextrin solution, aqueous with cosolvent or surfactant or cyclodextrin, Solubility of steroid, α-CD 0.08 M) was 2.7 µM, the solubility ([1]; aqueous cyclodextrin solution, aqueous with cosolvent or surfactant or cyclodextrin, Solubility of steroid, β-CD 0.015M) was 13.6 µM and the solubility ([1]; aqueous cyclodextrin solution, aqueous with cosolvent or surfactant or cyclodextrin, Solubility of steroid, γ-CD 0.035 M) was 141 µM. It also gave a solubility [1, 17] of 658 µM, a solubility ([1]; aqueous cyclodextrin solution, aqueous with cosolvent or surfactant or cyclodextrin, [Steroid] solubility, (SBE)6.1 γ-CD (0.04 M)) of 415 µM and a solubility ([1]; aqueous cyclodextrin solution, aqueous with cosolvent or surfactant or cyclodextrin, [Steroid] solubility, Captisol (0.04 M)) of 164 µM. The solubility [1, 18] was 18.2 µM, the solubility ([1]; water, [Steroid] Intrinsic Solubility (in H2O), in H2O) was 18.2 µM and the “Approximate Molar Ratio” value ([2]; SAE-α-CD) was about 141. The “Approximate Molar Ratio” value ([2]; SAE-β-CD) was about 274 and the “Approximate Molar Ratio” value ([2]; SAE-γ-CD) was about 101.

With `CCC[C@@H]1O[C@@H]2C[C@H]3[C@@H]4CCC5=CC(=O)C=C[C@]5(C)[C@H]4[C@@H](O)C[C@]3(C)[C@]2(C(=O)CO)O1` (single isomer, unassigned) [R-isomer] the “With/without CAPTISOL ratio of rate constants” value (from here on “With/without CAPTISOL ratio”) ([3]; pH 4, 60° C.) was 0.547, the “With/without CAPTISOL ratio” value ([3]; pH 4, 80° C.) was 0.607 and the “Pseudo 1st Order Rate constant” value ([3]; pH 4 no CAPTISOL, 60° C.) was 0.00109 h⁻¹. The “Pseudo 1st Order Rate constant” value ([3]; pH 4 no CAPTISOL, 80° C.) was 0.003704 h⁻¹, the “Pseudo 1st Order Rate constant” value ([3]; pH 4 w/ CAPTISOL, 60° C.) was 0.000597 h⁻¹ and the “Pseudo 1st Order Rate constant” value ([3]; pH 4 w/ CAPTISOL, 80° C.) was 0.00225 h⁻¹. The “With/without CAPTISOL ratio” value ([3]; pH 6, 60° C.) was 0.385, the “With/without CAPTISOL ratio” value ([3]; pH 6, 80° C.) was 0.529 and the “Pseudo 1st Order Rate constant” value ([3]; pH 6 no CAPTISOL, 60° C.) was 0.00432 h⁻¹. For the same compound, the “Pseudo 1st Order Rate constant” value ([3]; pH 6 no CAPTISOL, 80° C.) was 0.0138 h⁻¹, the “Pseudo 1st Order Rate constant” value ([3]; pH 6 w/ CAPTISOL, 60° C.) was 0.001661 h⁻¹ and the “Pseudo 1st Order Rate constant” value ([3]; pH 6 w/ CAPTISOL, 80° C.) was 0.00732 h⁻¹.

In the case of `CC1(C)O[C@@H]2C[C@H]3[C@@H]4C[C@H](F)C5=CC(=O)C=C[C@]5(C)[C@H]4[C@@H](O)C[C@]3(C)[C@]2(C(=O)CO)O1` [Flunisolide], the “Approximate Molar Ratio” value ([2]; SAE-β-CD) is reported as about 16, the “Approximate Molar Ratio” value ([2]; SAE-γ-CD) is reported as about 9 and the solubility (physchem; [4]) is reported as 4550 µM (≈ 1980 µg/mL). It also gave a solubility (physchem; [5]) of 2620 µM (≈ 1140 µg/mL) and a solubility (physchem; [6]) of 113 µM (≈ 49.1 µg/mL).
